One assay has as its target T1, human GPR30 (Homo sapiens, UniProt Q99527, P21A/Q20H).
T1 construct: expressed in transfected cells; host or cells: CHO/dhfr- cells (ATCC), clone #19
Description: Intracellular calcium ion level-increasing activity using FLIPR, human GPR30 cells. The class given is cell-based. The following applies: human GPR30-expressed CHO cells, Fluo 3-AM, up to 100 μM (FIGS. 1-3, 7). The source says: The cDNA (SEQ ID NO: 5) for human GPR30 was cloned by known PCR techniques to incorporate the cDNA into pAKKO1.11H expression vector (Biochemica et Biophysica Acta, 1219 (1994) 251-259). The structure of plasmid was verified by restriction enzyme digestion and sequencing analysis and a correctly constructed plasmid was used as CHO cell expression plasmid pAK-hGPR30.
This plasmid pAK-hGPR30 was transfected to CHO/dhfr− cells (American Type Culture Collection) by electroporation. First, plasmid pAK-hGPR30 was digested with restriction enzyme Ahd I. A cuvette for electroporation received 5×10^6 CHO/dhfr− cells suspended in 500 μl of PBS and 5 μg of plasmid DNA dissolved in 10 μl of TE buffer. The mixture was settled on ice for 5 minutes and subjected to electroporation under conditions of […] and 960 μF. After settling on ice for 5 minutes, the total volume of CHO/dhfr− cells were plated in a T75 flask and incubated in nucleic acid-containing MEMalpha medium (Invitrogen, Inc.) supplemented with 10% fetal bovine serum (BIO WHITTAKER, Inc.) at 37° C. in 5% carbon dioxide for one day. The cells were dispersed by trypsin treatment, recovered from the flask and plated in a 96-well plate by 200 counts or 500 counts per well. Incubation was initiated in nucleic acid-free MEMalpha medium (Invitrogen, Inc.) supplemented with 10% dialyzed fetal bovine serum (JRH BIOSCIENCES, Inc.) and 50 μg/ml gentamicin at 37° C. in 5% carbon dioxide. The plasmid-transfected transformants of CHO cells grew in the medium but the non-transfected cells gradually died. On Days 8 to 10 after the incubation, one colony that kept growing in one well of the 96-well plate were isolated and approximately 48 colonies of the transformants of CHO cells were selected. From each cell selected, RNA was recovered using a commercially available kit for RNA isolation. Subsequently, transformant CHO cell #19 clone highly expressing human GPR30 was selected by known TaqMan RT-PCR (hereinafter briefly referred to as human GPR30 cell). […]
On the technique in general: Calcium flux is commonly read through the fluorescence of an indicator in the cells.

In another assay the target is T2, rat GPR30 (Rattus norvegicus, UniProt O08878, S320N).
T2 construct: expressed in transfected cells; host or cells: CHO/dhfr- cells (ATCC), clone #6
T2 sequence (O08878 1-375 S320N): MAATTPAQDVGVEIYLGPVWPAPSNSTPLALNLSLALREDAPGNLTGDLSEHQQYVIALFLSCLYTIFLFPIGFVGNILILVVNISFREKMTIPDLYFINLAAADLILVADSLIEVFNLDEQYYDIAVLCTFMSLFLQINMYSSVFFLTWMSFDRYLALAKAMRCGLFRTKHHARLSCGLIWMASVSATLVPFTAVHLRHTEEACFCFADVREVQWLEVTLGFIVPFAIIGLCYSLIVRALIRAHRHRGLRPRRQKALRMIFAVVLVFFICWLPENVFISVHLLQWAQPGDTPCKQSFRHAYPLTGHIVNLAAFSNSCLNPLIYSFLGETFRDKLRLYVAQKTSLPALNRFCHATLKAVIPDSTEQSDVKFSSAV
The experiment in a line: Intracellular calcium ion level-increasing activity using FLIPR, rat GPR30 cells. In kind it is cell-based. Particulars: rat GPR30-expressed CHO cells, Fluo 3-AM, up to 100 μM (FIGS. 4-6, 8). The source says: The cDNA (SEQ ID NO: 6) for rat GPR30 was cloned by known PCR techniques to incorporate the cDNA into pAKKO1.11H expression vector (Biochemica et Biophysica Acta, 1219 (1994) 251-259). The structure of plasmid was verified by restriction enzyme digestion and sequencing analysis and a correctly constructed plasmid was used as CHO cell expression plasmid pAK-rGPR30.
In accordance with the procedures described in REFERENCE EXAMPLE 1, this plasmid pAK-rGPR30 was transfected to CHO/dhfr− cells (American Type Culture Collection) by electroporation and transformant CHO cell #6 clone highly expressing rat GPR30 was selected was selected (hereinafter briefly referred to as rat GPR30 cell).
(§1) The human GPR30 and rat GPR30 cells obtained in REFERENCE EXAMPLES above were suspended in medium (10% dFBS-DMEM) in 15×10^4 cells/ml, respectively. A 200 μl aliquot of the suspension was plated in each well of a 96-well plate (Black plate clear bottom, Coster, Inc.) for FLIPR, using an 8 channel pipette (3.0×10^4 cells/200 μl/well), and cultured at 37° C. overnight in a 5% CO2 incubator, which was provided for use (hereinafter referred to as the cell plate). Then, 20 ml of H/HBSS (9.8 g of Nissui HANKS 2 (Nissui Seiyaku Co., Ltd.), 0.35 g of sodium hydrogencarbonate, 4.77 g of HEPES; after adjusting the pH to 7.4 with 6 M sodium hydroxide solution, sterilization through a filter followed), 200 μl of 250 mM Probenecid and 200 μl of fetal bovine serum (FBS) were mixed. […]
(§2) All trans-retinol, all trans-retinal or 4-HPR (4-hydroxyphenylretinamide) was added to and diluted with 150 μl of H/HBSS containing 2.5 mM Probenecid and 0.1% CHAPS or H/HBSS containing 2.5 mM Probenecid, 0.1% CHAPS and 0.2% BSA; the dilution was transferred to a 96-well plate (V-Bottom Plate, Coster, Inc.) for FLIPR (hereinafter, the sample plate). […] Changes in fluorescence intensity were measured with passage of time to determine the intracellular calcium ion level-increasing activities.

Another assay concerns GPR30. Description: Intracellular calcium increase in GPR30-expressed CHO cells (summary statement). Particulars: stimulation with the compound. In kind it is cell-based. Here is the method: as §1, §2
In a further assay the test system is nuclear receptor PAR. Particulars: J. Biol. Chem. 271 (37), 22441-22446, 1996; cited from earlier work.
The test system of a further assay is various cancer cells. Particulars: J. Biol. Chem. 271 (37), 22441-22446, 1996; cited from earlier work.

T1 sequence (Q99527 whole entry Q20H/P21A): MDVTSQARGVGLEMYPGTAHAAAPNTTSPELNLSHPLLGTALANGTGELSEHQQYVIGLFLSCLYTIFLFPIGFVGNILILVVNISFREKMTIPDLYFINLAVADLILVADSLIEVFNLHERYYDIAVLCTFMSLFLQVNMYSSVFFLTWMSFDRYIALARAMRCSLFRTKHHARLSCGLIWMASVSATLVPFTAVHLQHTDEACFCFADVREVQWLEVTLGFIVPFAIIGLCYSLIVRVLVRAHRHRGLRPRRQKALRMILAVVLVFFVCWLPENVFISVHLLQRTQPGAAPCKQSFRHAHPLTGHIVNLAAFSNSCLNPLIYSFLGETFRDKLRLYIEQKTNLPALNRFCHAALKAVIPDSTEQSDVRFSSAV

For the compound `CC1=C(/C=C/C(C)=C/C=C/C(C)=C/C(=O)Nc2ccc(O)cc2)C(C)(C)CCC1` [4-HPR, 4-hydroxyphenylretinamide], the “increase in the intracellular calcium ion concentration (change in fluorescence intensity)” value at human GPR30 and on rat GPR30 was “induced an increase in the intracellular calcium ion concentration in a manner dependent on the concentration” throughout. Further, the “intracellular calcium in the GPR30-expressed CHO cells” value in the assay with GPR30 was “specifically increased”. Besides, the “agonist for nuclear receptor” value in the assay with nuclear receptor PAR is “is an agonist for nuclear receptor PAR”. Moreover, the “apoptosis of various cancer cells” value in the assay on various cancer cells is on record as “induces apoptosis of various cancer cells”.

On to `CC1=C(/C=C/C(C)=C/C=C/C(C)=C/C=O)C(C)(C)CCC1` [all trans-retinal], for which the “increase in the intracellular calcium ion concentration (change in fluorescence intensity)” value at human GPR30 and at rat GPR30 was “induced an increase in the intracellular calcium ion concentration in a manner dependent on the concentration” throughout.

As for `CC1=C(/C=C/C(C)=C/C=C/C(C)=C/CO)C(C)(C)CCC1` [all trans-retinol], the “increase in the intracellular calcium ion concentration (change in fluorescence intensity)” value at human GPR30 and on rat GPR30 was “induced an increase in the intracellular calcium ion concentration in a manner dependent on the concentration” throughout. For the same compound, the “intracellular calcium in the GPR30-expressed CHO cells” value with GPR30 is “specifically increased”.

The values above are taken from patent publication US7625696B2, “Screening method” (Takeda Pharmaceutical Company Limited, priority 2003, dated 2009).
